Data set [1] has as its target T1, human TRPA1 (polypeptide of SEQ ID NO:2) (Homo sapiens, UniProt O75762, K186N/R3C/R58T).
T1 construct: expressed in transfected cells; host or cells: CHO-K1 cells, transient transfection of the pcDNA3.1(+) human TRPA1 vector
In words: TRPA1 inhibitor screening by FLIPR, calcium inflow after addition of cinnamic aldehyde. In kind it is cell-based. The note with it: read-out: inhibitory activity on the polypeptide of SEQ ID NO:2 in terms of IC50. On the procedure:
To measure the changes in intracellular calcium concentration by FLIPR, the following pre-treatment was performed. First, an assay buffer for adding the fluorescent dye Fluo3-AM (DOJIN) to the cells, or for washing the cells just before performing the FLIPR assay, was prepared. To a solution prepared by adding 20 ml of 1M HEPES (pH 7.4) (Invitrogen) to 1000 ml of HBSS (Invitrogen) (hereinafter, HBSS/HEPES solution), 10 ml of a solution prepared by dissolving 710 mg of probenecid (Sigma) in 5 ml of 1N NaOH and then adding 5 ml of the HBSS/HEPES solution, was added and mixed, and this solution was used as the assay buffer. […] After this pretreatment was performed, changes in intracellular calcium concentration after addition of the various test samples were measured with the FLIPR.
Compounds that inhibit a polypeptide consisting of the amino acid sequence shown by SEQ ID NO:2 (inhibitor) were screened for. Inhibitory activity was measured by performing detection of calcium inflow in the cells using a calcium-sensitive fluorescent reagent; specifically, the method described in Example 3 was used with a modification. […]

For data set [2], the system named is RIN14B cells. Put plainly: Channel activity in RIN14B cells using calcium-sensitive fluorescent reagent (FLIPR). In kind it is cell-based, rat. Here is the method:
RIN14B cells (5×10^4 cells), wherein the expression of TRPA1 was confirmed in Example 10, were incubated in the presence of a calcium-sensitive fluorescent reagent (Fluo3-AM; DOJINDO) at 37° C. for 1 hour to thereby incorporate the calcium-sensitive fluorescent reagent in the cells, after which the cells were washed with physiological saline to remove the calcium-sensitive fluorescent reagent that had not been incorporated in the cells. To the cells obtained, physiological saline supplemented with allyl isothiocyanate, cinnamic aldehyde, or acrolein was added; the fluorescence emitted by the cells was measured over time. The above-described measurements were performed using an automated fluorescence detection apparatus (FLIPR; Molecular Device). […] Ruthenium Red was added concurrently and a measurement was performed to determine whether or not calcium inflow in the cells was be inhibited.

Data set [3] has as its system guinea pig ileum. Put plainly: Isolated guinea pig gut constriction (Magnus, ileum). The note with it: Ruthenium Red 30 μM for 15 minutes; allyl isothiocyanate 300 μM; vs vehicle-applied specimen. On the procedure: Guinea pigs (Hartley strain, male, weighing 300-400 g), under ether anesthesia, were exsanguinated to death by cutting the carotid artery. The ileum was extirpated, about 15-cm portions at both ends were removed, a section 1.5 cm long was cut out from the remaining portion, and incisions were made longitudinally parallelly in the gut to prepare a tabular specimen. This specimen was sandwiched with serrefine at both ends, and suspended with a thread in a Magnus chamber containing 10 ml of a 37° C. Krebs solution (118 mM NaCl, 4.7 mM KCl, 2.5 mM CaCl2, 1.2 mM MgSO4, 1.2 mM KH2PO4, 11 mM D-glucose, 20 mM NaHCO3) aerated with 95% O2-5% CO2 mixed gas. A 1-g load was applied to the specimen, buffers were exchanged at 15-minute intervals, and the specimen was allowed to stand for about 60 minutes to stabilize its tension. Changes in the tension in response to agonist stimulation were measured isometrically, and recorded on a recorder. Acetylcholine, 10^−5 M, was administered to induce contraction of the ileum specimen; after the contraction maximized, the bath was washed three times to purge out the acetylcholine. This operation was repeated at 10-minute intervals, and after the induced contraction stabilized two consecutive times, each test substance was administered. By comparing the contractile forces produced by acetylcholine and the test substance, the effect of the test substance was evaluated. One specimen was investigated only at one concentration of the test substance. […] From the results above, it was shown that the TRPA1 activator induced gut contraction.
The serotonin receptor antagonists used were pizotifen maleate (10 μM), a 5-HT1,2 receptor antagonist, ketanserin tartrate (0.1 μM), a 5-HT2 receptor antagonist, ramosetron hydrochloride (0.3 μM), a 5-HT3 receptor antagonist, and GR113808 (0.3 μM), a 5-HT4 receptor antagonist.
The inhibitory actions of various serotonin receptor antagonists on contraction upon stimulation with acrolein (300 μM) were investigated in the same manner. […] From the results above, it was shown that serotonin was released upon stimulation with acrolein to induce contraction via serotonin receptors such as 5-HT1 receptor and 5-HT3 receptor.

In data set [4] the test system is RIN14B cells. Put plainly: Serotonin secretion from RIN14B cells (immunoassay). It counts as cell-based, rat. On the procedure: After RIN14B cells in culture in a Petri dish were detached using a PBS containing 1 mM EDTA, they were sown to a 96-well plate and cultured for 2 days. The medium used was RPMI1640 (Invitrogen Japan K.K.) supplemented with 10% fetal bovine serum (ICN), 100 U/ml penicillin, and 100 μg/ml streptomycin. After the cells were once washed with Hanks' Balanced Salt Solutions (HBSS, Invitrogen) supplemented with 0.1% BSA and 10 μM fluoxetine (TOCRIS), each TRPA1 activator, previously diluted/prepared with the above-described HBSS, was added, and the RIN14B cells were cultured at 37° C. in the presence of 5% CO2 for 20 minutes. After the cultivation, the cell supernatant was recovered, and stored under freezing. The serotonin content in the supernatant was measured using a commercially available serotonin immunoassay kit (Beckman).

For data set [5], the system named is rat TRPA1 gene. In words: Suppression of rat TRPA1 gene expression by siRNA in RIN14B cells (real time PCR). The conditions noted are these: siRNA 10 nM, 2 days. In kind it is cell-based. Here is the method:
The expression of the TRPA1 gene in rat tissues, a rat EC cell fraction and RIN14B cells was analyzed by real time PCR using a sequence detector (PRISM7900; Applied Biosystems). With the first strand cDNA derived from rat tissue, rat EC cells or RIN14B cells, obtained in the aforementioned Example, as the template, using a fluorescent reagent (SYBR Green PCR Core Reagents Kit; Applied Biosystems), PCR was performed. The aforementioned PCR was performed using an oligonucleotide consisting of the base sequence shown by SEQ ID NO:13 as a sense primer, and an oligonucleotide consisting of the base sequence shown by SEQ ID NO:14 as an antisense primer; first, thermal denaturation was performed at 95° C. (10 minutes), after which a cycle consisting of heat treatment at 95° C. (15 seconds)/59° C. (1 minute) was repeated 45 times. Each primer is a sequence specific for a gene consisting of the base sequence shown by SEQ ID NO:5. […]
RIN14B cells were sown to a 60 mm Petri dish at 6×10^5 cells and cultured for 1 day. After various sequences of siRNA for rat TRPA1 (10 nM), designed using the siRNA design system siDirect (RNAi), were introduced using a transformation reagent (LIPOFECTAMINE2000; Invitrogen Japan K.K.), the RIN14B cells were further cultured for 2 days, and the expression level of the rat TRPA1 gene was measured. […]

From patent US8034574B2, “Screening method for prokinetic agent” (Astellas Pharma Inc., priority 2006, dated 2011) come the findings set out here.

T1 sequence (O75762 whole entry R3C/R58T/K186N): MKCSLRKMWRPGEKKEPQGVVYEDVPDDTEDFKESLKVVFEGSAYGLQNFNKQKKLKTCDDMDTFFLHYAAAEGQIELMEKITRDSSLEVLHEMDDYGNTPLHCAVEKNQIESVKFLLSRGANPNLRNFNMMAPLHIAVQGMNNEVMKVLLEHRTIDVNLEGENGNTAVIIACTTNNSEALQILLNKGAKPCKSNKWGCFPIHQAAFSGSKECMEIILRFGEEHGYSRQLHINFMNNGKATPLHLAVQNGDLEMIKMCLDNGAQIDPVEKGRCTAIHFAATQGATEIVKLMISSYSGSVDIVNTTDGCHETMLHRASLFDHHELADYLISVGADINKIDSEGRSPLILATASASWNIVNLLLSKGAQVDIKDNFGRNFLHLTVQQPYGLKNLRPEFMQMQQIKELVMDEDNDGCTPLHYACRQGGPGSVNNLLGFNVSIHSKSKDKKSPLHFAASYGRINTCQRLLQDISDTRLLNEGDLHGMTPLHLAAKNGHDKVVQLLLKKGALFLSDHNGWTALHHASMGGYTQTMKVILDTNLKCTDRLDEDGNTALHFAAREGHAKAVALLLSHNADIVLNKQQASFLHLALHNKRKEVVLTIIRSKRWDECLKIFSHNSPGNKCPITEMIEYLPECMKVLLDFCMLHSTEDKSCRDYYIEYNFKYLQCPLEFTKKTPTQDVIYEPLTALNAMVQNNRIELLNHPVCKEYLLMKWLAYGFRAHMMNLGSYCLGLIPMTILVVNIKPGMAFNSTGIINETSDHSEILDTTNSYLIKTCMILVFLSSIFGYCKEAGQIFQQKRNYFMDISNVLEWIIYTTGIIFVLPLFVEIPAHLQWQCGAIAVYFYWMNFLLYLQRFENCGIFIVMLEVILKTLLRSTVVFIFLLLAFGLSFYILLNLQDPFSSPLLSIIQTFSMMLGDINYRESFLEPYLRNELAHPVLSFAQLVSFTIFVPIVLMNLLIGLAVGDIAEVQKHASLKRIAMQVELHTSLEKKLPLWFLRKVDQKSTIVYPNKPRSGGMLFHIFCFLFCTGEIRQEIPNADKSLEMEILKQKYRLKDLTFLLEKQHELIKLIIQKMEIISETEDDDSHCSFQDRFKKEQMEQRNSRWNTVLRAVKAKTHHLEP

By IC50 is commonly meant the concentration that gives 50% inhibition. In the case of `N.N.N.N.N.N.N.N.N.N.N.N.N.N.[Cl-].[Cl-].[Cl-].[Cl-].[Cl-].[Cl-].[O-2].[O-2].[Ru+3].[Ru+3].[Ru+4]` [Ruthenium Red], in data set [1], the IC50 amounted to 2200 nM. In data set [2] (30 μM Ruthenium Red, RIN14B cells), the “inhibition of activation by allyl isothiocyanate” value was determined as 90.9%. The “inhibition of activator-induced elevation of fluorescence intensity” value in data set [2] (added concurrently with allyl isothiocyanate, cinnamic aldehyde or acrolein) is recorded as “the elevation of fluorescence intensity was inhibited”. Besides, in data set [3], the “suppression of contraction upon stimulation with allyl isothiocyanate by TRPA1 inhibitor” value is reported as “about 84%”. Further, the “inhibition of acrolein-induced serotonin secretion” value in data set [4] (30 μM Ruthenium Red, acrolein 30 μM) worked out at 73.0%. In data set [4] (Ruthenium Red 30 μM, cinnamic aldehyde 30 μM), the “suppression of cinnamic aldehyde-induced serotonin secretion” value is recorded as “completely suppressed”.
Turning to “#971: a rat TRPA1-specific siRNA (sense strand SEQ ID NO:15, antisense strand SEQ ID NO:16) (sense CUGGCAGACUACCUAAUUUCA; antisense AAAUUAGGUAGUCUGCCAGGU; listed as RNA, chemistry not given here)”, the “suppression of intracellular calcium inflow activity of allyl isothiocyanate” value in data set [2] (siRNA-introduced RIN14B, allyl isothiocyanate 300 μM) was 67.3%. The “serotonin secretion increasing activity of cinnamic aldehyde in siRNA-introduced RIN14B” value in data set [4] (siRNA-introduced RIN14B, listed as #971 siRNA) is given as “suppressed cinnamic aldehyde-induced serotonin release”. For the same compound, the “expression level of the rat TRPA1 gene” value in data set [5] was “a reduction in the expression level of the rat TRPA1 was observed”.
